Patent US8247211B2, “Glycopeptide antibiotics” (American Cyanamid Company, priority 2001, dated 2012)
Converted amounts (≈) assume the structure as drawn.

Columns and labels:
Assay in all cases: In vitro antibacterial evaluation: minimum inhibitory concentration (MIC), broth dilution method
Type in all cases: cell-based
Enterococcus sp. = test system: Enterococcus sp.
Method in brief: (§1)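 Following NCCLS approved standard M7-A2, compounds are serially diluted from 64 to 0.06 μg/mL in Muller-Hinton II […] and inoculated at 5×10^5 CFU/mL; the MIC is the minimum concentration at which growth is inhibited.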

Escherichia coli = test system: Escherichia coli
Method in brief: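 Susceptibility determined by NCCLS-recommended broth dilution (M7-A2), Muller-Hinton II […]. Concentration span 64-0.06 μg/mL, inoculum 5×10^5 CFU/mL. Isolates include strains resistant to methicillin, penicillin and/or vancomycin.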

Staphylococcus sp. = details: broth dilution, 18 hours at 35° C.
Method in brief: as §1

Streptococcus sp. = test system: Streptococcus sp.
Method in brief: as §1

[1] = broth dilution, inoculum 5×10^5 CFU/mL, 18 hours at 35° C.

Structure (SMILES): CC(c1ccccc1)C1NC(=O)CNC(=O)C(CO)NC(=O)C(C(O)C2CNC(=N)N2C2OC(CO)C(O)C(O)C2O)NC(=O)C(C(O)C2CNC(=N)N2)NC(=O)C(Cc2ccc(OC3OC(CO)C(OC4OC5COC(c6ccc(-c7ccc(Cl)cc7)cc6)OC5C(O)C4O)C(O)C3O)cc2)NC1=O (stereo not drawn) [Example 178]
- MIC Enterococcus avium (GC 4558) (Enterococcus sp.; [1]): 4 µg/mL (≈ 2.68 µM)
- MIC Enterococcus faecalis (ATCC 29212) (Enterococcus sp.; [1]): 4 µg/mL (≈ 2.68 µM)
- MIC Enterococcus faecalis (GC 2242) (Enterococcus sp.; [1]): 2 µg/mL (≈ 1.34 µM)
- MIC Enterococcus faecalis (GC 2691) (Enterococcus sp.; [1]): 1 µg/mL (≈ 0.669 µM)
- MIC Enterococcus faecalis (GC 3059) (Enterococcus sp.; [1]): 16 µg/mL (≈ 10.7 µM)
- MIC Enterococcus faecalis (GC 4552) (Enterococcus sp.; [1]): 4 µg/mL (≈ 2.68 µM)
- MIC Enterococcus faecalis (GC 4553) (Enterococcus sp.; [1]): 2 µg/mL (≈ 1.34 µM)
- MIC Enterococcus faecalis (GC 4554) (Enterococcus sp.; [1]): 2 µg/mL (≈ 1.34 µM)
- MIC Enterococcus faecalis (GC 6189) (Enterococcus sp.; [1]): 0.5 µg/mL (≈ 0.335 µM)
- MIC Enterococcus faecium (GC 2243) (Enterococcus sp.; [1]): 4 µg/mL (≈ 2.68 µM)
- MIC Enterococcus faecium (GC 4556) (Enterococcus sp.; [1]): 4 µg/mL (≈ 2.68 µM)
- MIC Enterococcus faecium (GC 4557) (Enterococcus sp.; [1]): 8 µg/mL (≈ 5.36 µM)
- MIC Enterococcus faecalis (ATCC 29212) (Enterococcus sp.; strain ATCC 29212): 4 µg/mL (≈ 2.68 µM)
- MIC Enterococcus faecalis (GC 2242) (Enterococcus sp.; strain GC 2242): 2 µg/mL (≈ 1.34 µM)
- MIC Enterococcus faecium (GC 2243) (Enterococcus sp.; strain GC 2243): 4 µg/mL (≈ 2.68 µM)
- MIC Enterococcus faecalis (GC 2691) (Enterococcus sp.; strain GC 2691): 1 µg/mL (≈ 0.669 µM)
- MIC Enterococcus faecalis (GC 3059) (Enterococcus sp.; strain GC 3059): 16 µg/mL (≈ 10.7 µM)
- MIC Enterococcus faecalis (GC 4552) (Enterococcus sp.; strain GC 4552): 4 µg/mL (≈ 2.68 µM)
- MIC Enterococcus faecalis (GC 4553) (Enterococcus sp.; strain GC 4553): 2 µg/mL (≈ 1.34 µM)
- MIC Enterococcus faecalis (GC 4554) (Enterococcus sp.; strain GC 4554): 2 µg/mL (≈ 1.34 µM)
- MIC Enterococcus faecium (GC 4556) (Enterococcus sp.; strain GC 4556): 4 µg/mL (≈ 2.68 µM)
- MIC Enterococcus faecium (GC 4557) (Enterococcus sp.; strain GC 4557): 8 µg/mL (≈ 5.36 µM)
- MIC Enterococcus avium (GC 4558) (Enterococcus sp.; strain GC 4558): 4 µg/mL (≈ 2.68 µM)
- MIC Enterococcus faecalis (GC 6189) (Enterococcus sp.; strain GC 6189): 0.5 µg/mL (≈ 0.335 µM)
- MIC Escherichia coli (ATCC 25922) (Escherichia coli; strain ATCC 25922): >64 µg/mL
- MIC Escherichia coli (GC 4559) (Escherichia coli; strain GC 4559): >64 µg/mL
- MIC Escherichi coli (GC 4560) (Escherichia coli; strain GC 4560): 16 µg/mL (≈ 10.7 µM)
- MIC Coagulase Negative Staphylococcus (GC 4547) (Staphylococcus sp.; 5×10^5 CFU/mL): 32 µg/mL (≈ 21.4 µM)
- MIC Coagulase Negative Staphylococcus (GC 4548) (Staphylococcus sp.; 5×10^5 CFU/mL): 0.5 µg/mL (≈ 0.335 µM)
- MIC Coagulase Negative Staphylococcus (GC 4549) (Staphylococcus sp.; 5×10^5 CFU/mL): 2 µg/mL (≈ 1.34 µM)
- MIC Coagulase Negative Staphylococcus (GC 4551) (Staphylococcus sp.; 5×10^5 CFU/mL): 4 µg/mL (≈ 2.68 µM)
- MIC Coagulase Negative Staphylococcus (GC 6257) (Staphylococcus sp.; 5×10^5 CFU/mL): 2 µg/mL (≈ 1.34 µM)
- MIC Staphylococcus aureus (ATCC 29213) (Staphylococcus sp.; 5×10^5 CFU/mL): 16 µg/mL (≈ 10.7 µM)
- MIC Staphylococcus aureus (GC 1131) (Staphylococcus sp.; 5×10^5 CFU/mL): 4 µg/mL (≈ 2.68 µM)
- MIC Staphylococcus aureus (GC 3051) (Staphylococcus sp.; 5×10^5 CFU/mL): 8 µg/mL (≈ 5.36 µM)
- MIC Staphylococcus aureus (GC 3053) (Staphylococcus sp.; 5×10^5 CFU/mL): 4 µg/mL (≈ 2.68 µM)
- MIC Staphylococcus aureus (GC 4541) (Staphylococcus sp.; 5×10^5 CFU/mL): 8 µg/mL (≈ 5.36 µM)
- MIC Staphylococcus aureus (GC 4542) (Staphylococcus sp.; 5×10^5 CFU/mL): 8 µg/mL (≈ 5.36 µM)
- MIC Staphylococcus aureus (GC 4544) (Staphylococcus sp.; 5×10^5 CFU/mL): 8 µg/mL (≈ 5.36 µM)
- MIC Staphylococcus aureus (GC 4545) (Staphylococcus sp.; 5×10^5 CFU/mL): 4 µg/mL (≈ 2.68 µM)
- MIC Staphylococcus aureus-SMITH (GC 4543) (Staphylococcus sp.; 5×10^5 CFU/mL): 4 µg/mL (≈ 2.68 µM)
- MIC Staphylococcus haemolyticus (GC 4546) (Staphylococcus sp.; 5×10^5 CFU/mL): 8 µg/mL (≈ 5.36 µM)
- MIC Staphylococcus aureus (ATCC 29213) (Staphylococcus sp.; strain ATCC 29213): 16 µg/mL (≈ 10.7 µM)
- MIC Staphylococcus aureus (GC 1131) (Staphylococcus sp.; strain GC 1131): 4 µg/mL (≈ 2.68 µM)
- MIC Staphylococcus aureus (GC 3051) (Staphylococcus sp.; strain GC 3051): 8 µg/mL (≈ 5.36 µM)
- MIC Staphylococcus aureus (GC 3053) (Staphylococcus sp.; strain GC 3053): 4 µg/mL (≈ 2.68 µM)
- MIC Staphylococcus aureus (GC 4541) (Staphylococcus sp.; strain GC 4541): 8 µg/mL (≈ 5.36 µM)
- MIC Staphylococcus aureus (GC 4542) (Staphylococcus sp.; strain GC 4542): 8 µg/mL (≈ 5.36 µM)
- MIC Staphylococcus aureus (GC 4544) (Staphylococcus sp.; strain GC 4544): 8 µg/mL (≈ 5.36 µM)
- MIC Staphylococcus aureus (GC 4545) (Staphylococcus sp.; strain GC 4545): 4 µg/mL (≈ 2.68 µM)
- MIC Streptococcus agalactiae (GC 4564) (Streptococcus sp.; [1]): <0.06 µg/mL
- MIC Streptococcus pneumoniae (ATCC 6301) (Streptococcus sp.; [1]): <0.06 µg/mL
- MIC Streptococcus pneumoniae (GC 1894) (Streptococcus sp.; [1]): <0.06 µg/mL
- MIC Streptococcus pneumoniae (GC 4565) (Streptococcus sp.; [1]): <0.06 µg/mL
- MIC Streptococcus pyogenes (GC 4563) (Streptococcus sp.; [1]): 0.12 µg/mL (≈ 0.0803 µM)
- MIC Streptococcus pneumoniae (ATCC 6301) (Streptococcus sp.; strain ATCC 6301): <0.06 µg/mL
- MIC Streptococcus pneumoniae (GC 1894) (Streptococcus sp.; strain GC 1894): <0.06 µg/mL
- MIC Streptococcus pyogenes (GC 4563) (Streptococcus sp.; strain GC 4563): 0.12 µg/mL (≈ 0.0803 µM)
- MIC Streptococcus agalactiae (GC 4564) (Streptococcus sp.; strain GC 4564): <0.06 µg/mL
- MIC Streptococcus pneumoniae (GC 4565) (Streptococcus sp.; strain GC 4565): <0.06 µg/mL
